The text below walks through data of PubChem BioAssay AID1996.

In brackets after ≈: the same amount, converted by molar mass.

For the series the following is noted: buffer; pH 7.4; 200.0 µM.
What is called kinetic solubility is the concentration staying in solution when a stock, usually in DMSO, is diluted into the medium. Compound `CC(=O)Nc1ccc(NC(=O)c2c(C)noc2C)cc1` displayed a solubility (kinetic) above 41 µg/mL.

Compound `CC(C)CNS(=O)(=O)c1cc(C(=O)O)c(Cl)cc1Cl` yielded a kinetic solubility above 48.9 µg/mL.

On to `O=C(NC1=NCCS1)c1ccccc1Cl`, for which the solubility (kinetic) is above 36.1 µg/mL.

For `Cc1cc(C)cc(NC(=O)CNC(c2ccccc2)c2ccccc2)c1`, the kinetic solubility was determined as 1.1 µg/mL (≈ 3.19 µM).

`Cc1cc(C)nc(NC2=NCCN2C(=S)Nc2c(C)cccc2C)n1` had a solubility (kinetic) of 17.7 µg/mL (≈ 49.9 µM).

The compound `CCN1CCN(CCC(=O)Nc2cccc(C)c2)CC1.Cl` showed a solubility (kinetic) of 46.4 µg/mL.

With `N#Cc1c(Nc2ccccc2)c(C=O)c[nH]c1=O`, the kinetic solubility is above 35.9 µg/mL.

`Clc1nnc(Cl)c2c1ncn2Cc1ccccc1`: the kinetic solubility was above 41.9 µg/mL.

In turn, `CCOC(=O)Cc1csc(NC(=O)CN2CCN(CC)CC2)n1` returned a solubility (kinetic) of 3.8 µg/mL (≈ 11.2 µM).

Turning to `O=C(c1cccs1)N1CCN=C1SCc1ccc(F)cc1`, the solubility (kinetic) is below 0.3 µg/mL.

`O=C(Cn1c(=O)oc2ccccc21)Nc1ccc(F)cc1` had a solubility (kinetic) of 21.8 µg/mL (≈ 76.2 µM).

In the case of `Fc1ccccc1CN1CCN(c2ncccn2)CC1`, the solubility (kinetic) came out at 30.1 µg/mL (≈ 111 µM). This solubility kinetic and that of the compound before are within 1.5-fold of each other.

For `Cc1cnc(=O)[nH]c1SCC(=O)Nc1nccs1`, the solubility (kinetic) was determined as 31 µg/mL (≈ 110 µM). The solubility kinetic values of the last two compounds are within 1.5-fold of each other.

`COC(=O)CCc1nc2ccccc2nc1OC` displayed a solubility (kinetic) above 36.9 µg/mL.

In turn, `CCOC(=O)c1ccc(CSC(=N)N)o1` showed a kinetic solubility of 31.4 µg/mL (≈ 138 µM).

The compound `CCCC(C)C(=O)Nc1ccc(S(=O)(=O)N2CCCC2)cc1` (configuration not stated) showed a kinetic solubility above 48.7 µg/mL.

The compound `COc1ccc2[nH]c(=O)c(CN(C)C(=O)c3cccs3)cc2c1` gave a solubility (kinetic) of 12.4 µg/mL (≈ 37.8 µM).

For the compound `CCOc1ccccc1C(=O)N(C)CC(=O)Nc1ccc(OC)cc1`, the kinetic solubility is above 51.4 µg/mL.

`COc1cc(OC)c(NC(=O)Cc2cccs2)cc1Cl` came in with a solubility (kinetic) of 32.1 µg/mL (≈ 103 µM).

`COc1ccc(/C=C/C(=O)O)cc1S(=O)(=O)Nc1ccc2c(c1)OCO2` yielded a kinetic solubility of 49.8 µg/mL (≈ 132 µM).

Compound `Cc1ccc(OC(C)C(=O)OCC(=O)Nc2sccc2C(N)=O)cc1` (configuration not stated) came in with a solubility (kinetic) above 54.4 µg/mL.

Compound `O=C(NCc1ccccc1)c1cc[n+](Cc2ccccc2)cc1.[Cl-]` yielded a kinetic solubility of 49.7 µg/mL.

With `Cc1ccc(-c2c(NC(=O)C(C)C)n(C)c3ccccc3c2=O)cc1`, the solubility (kinetic) is 29.4 µg/mL (≈ 87.9 µM). Against the preceding compound, the solubility kinetic is about 1.7-fold lower.

`CC(C)(CO)NC(=O)C12CC3CC(CC(Br)(C3)C1)C2` had a kinetic solubility above 49.5 µg/mL.

Regarding `CN(c1cccc(NC(=O)c2ccc(C(C)(C)C)cc2)c1)S(C)(=O)=O`, the kinetic solubility was below 0.4 µg/mL.

For `CC1SCC(=O)N(CC(=O)NC2CCCCC2)C1=O` (configuration not stated), the solubility (kinetic) amounted to 37.9 µg/mL (≈ 133 µM).

The compound `NC(=O)c1cc(-c2ccccc2)nc2ccc(Br)cc12` came in with a solubility (kinetic) of 1.8 µg/mL (≈ 5.5 µM).

`COc1cc(C(C)=O)ccc1OCC(=O)NCC(c1ccc(F)cc1)N1CCOCC1` (configuration not stated): the solubility (kinetic) was above 64.6 µg/mL.

`O=C(COC(=O)c1ccc2c(c1)OCO2)NC1CCCCC1`: the kinetic solubility was 18.4 µg/mL (≈ 60.3 µM).

Take `OCCN(Cc1ccccc1)Cc1nc(CC2CC2)no1`: the kinetic solubility is above 43.1 µg/mL.

In the case of `N#Cc1cccc(C(=O)N(CCc2ccccc2)Cc2cccs2)c1`, the solubility (kinetic) came to 12.9 µg/mL (≈ 37.2 µM).

`COc1ccccc1NC(=O)c1c[nH]c2ccccc12`: the kinetic solubility was above 39.9 µg/mL.

As for `O=C(NC1CCN(C(=O)Nc2cccc(Cl)c2)CC1)c1ccco1`, the kinetic solubility was 46.1 µg/mL (≈ 133 µM).

The compound `CC(C)C1Oc2ccccc2N(CC(=O)NC2CCCCC2)C1=O` (configuration not stated) came in with a kinetic solubility above 49.6 µg/mL.

As for `CS(=O)(=O)Nc1ccc(-c2cn3c(n2)SCC3)cc1`, the kinetic solubility came to 43.6 µg/mL (≈ 148 µM).

Take `Br.COc1ccccc1N1CCN(CCCCN2C(=O)c3ccccc3C2=O)CC1`: the kinetic solubility is above 71.2 µg/mL.

Regarding `Cc1c(C(=O)OCC(=O)N2C(C)CCCC2C)oc2ccccc12` (configuration not stated), the solubility (kinetic) came to 44.1 µg/mL (≈ 134 µM).

Regarding `CN(C(=O)c1ccc(NC(=O)c2ccco2)cc1)c1ccccc1`, the solubility (kinetic) was found to be 2.9 µg/mL (≈ 9.05 µM).

Compound `O=c1[nH]c(CSc2ncn[nH]2)nc2ccccc12` showed a solubility (kinetic) above 38.9 µg/mL.

With `O=C1N(CCCl)c2ccc(Br)cc2C12OCCO2`, the kinetic solubility was 48.1 µg/mL (≈ 145 µM).

`Cc1ccc(S(=O)(=O)NC(C)C(=O)NC(C)c2cccs2)cc1` (configuration not stated) returned a kinetic solubility of 51.6 µg/mL (≈ 146 µM).

`C=CCn1c(=O)c2ccccc2n2c(SCC(=O)O)nnc12`: the solubility (kinetic) was above 47.4 µg/mL.

In turn, `O=C(O)C1CCCN1S(=O)(=O)c1ccc(F)cc1` (configuration not stated) yielded a kinetic solubility above 41 µg/mL.

For the compound `O=C(OCCN1CCOCC1)c1ccc(O)cc1`, the solubility (kinetic) was above 37.7 µg/mL.

As for `Cc1ccc(/C=C2\CCn3c2nc2cc(C(=O)O)ccc2c3=O)c(C)c1`, the kinetic solubility is 45.7 µg/mL (≈ 132 µM).

As to `CC1CCN(C(=O)COC(=O)CCC(=O)c2ccc(Cl)cc2)CC1`, the solubility (kinetic) is 49.8 µg/mL (≈ 142 µM).

As for `O=C(O)CN1C(=O)NC2(CCCc3ccccc32)C1=O` (configuration not stated), the solubility (kinetic) was above 41.1 µg/mL.

Turning to `Oc1ccc2ccccc2c1C=NC12CN3CCN(CN(C3)C1)C2`, the kinetic solubility stood at 46.5 µg/mL (≈ 144 µM).

As to `CC(C)(C)CC(=O)NCCc1csc(-c2ccccc2)n1`, the solubility (kinetic) was above 45.4 µg/mL.

The compound `O=C(O)Cn1cc(/C=N/Nc2ccc([N+](=O)[O-])cn2)c2ccccc21` came in with a solubility (kinetic) above 50.9 µg/mL.

`O=C(Nc1ccccc1)Nc1cccc2nsnc12` displayed a kinetic solubility of 5.7 µg/mL (≈ 21.1 µM).

As to `COc1ccc(N/C=C/C(=O)c2ccc(OC)c(OC)c2)cc1`, the solubility (kinetic) was below 0.7 µg/mL.
